Experimental data from publication PMC10281575, “PfCRT mutations conferring piperaquine resistance in falciparum malaria shape the kinetics of quinoline drug binding and transport” (PLOS Pathogens, 2023).
“And” between values parts separate entries of the source, which are not always exact repeats. Equal values may be shown once.

Target: T1, PfCRT^Dd2_H97Y (Plasmodium falciparum, UniProt Q8IBZ9, A220S/H97Y/I356T/K76T/M74I/N326S/N75E/Q271E/R371I)
T1 construct: expressed in transfected cells; host or cells: Xenopus laevis oocytes injected with in vitro transcribed RNA (pSP64T)
T1 sequence (Q8IBZ9 1-424 M74I/N75E/K76T/H97Y/A220S/Q271E/N326S/I356T/R371I): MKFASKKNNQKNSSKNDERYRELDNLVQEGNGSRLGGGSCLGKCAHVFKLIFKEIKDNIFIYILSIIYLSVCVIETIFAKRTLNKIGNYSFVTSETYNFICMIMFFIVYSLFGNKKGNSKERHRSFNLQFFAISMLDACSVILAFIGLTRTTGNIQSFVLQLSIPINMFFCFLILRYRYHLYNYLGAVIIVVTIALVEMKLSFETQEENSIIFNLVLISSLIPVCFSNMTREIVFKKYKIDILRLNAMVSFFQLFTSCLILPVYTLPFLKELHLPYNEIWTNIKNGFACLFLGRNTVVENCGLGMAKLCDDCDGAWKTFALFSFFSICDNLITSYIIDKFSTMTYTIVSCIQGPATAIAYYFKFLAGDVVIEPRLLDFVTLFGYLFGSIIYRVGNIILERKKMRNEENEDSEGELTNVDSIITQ
Assay: Radiolabeled drug uptake in X. laevis oocytes expressing PfCRT^Dd2_H97Y
Assay type: cell-based
Details: for Vmax, maximal velocity of drug transport / Km: Michaelis-Menten fit, 10-500 μM drug, pH 6; for Km: read-out: KM, Michaelis constant
Source text: A codon-optimized coding sequence of the Dd2 isoform of PfCRT (PfCRT^Dd2) was subcloned into the pSP64T expression vector [21]. To generate the necessary mutations to introduce the amino acid substitutions H97Y, F145I, M343L or G353V into the pfcrt sequence, the overlap extension method was used. A region from the 5’-untranslated Xenopus β-globin sequence to the respective 3’ region, containing the full length pfcrt coding sequence, was amplified using the following primer pairs: for the H97Y mutation, numbers 1/4 and 2/3; for the F145I mutation, numbers 1/6 and 2/5; for the M343L mutation, numbers 1/8 and 2/7; and for the G353V mutation, numbers 1/10 and 2/9 (for primers, see S2 Table). Both PCR products were used as template for amplification of the final product using primers number 1/2. The resulting fragment was cloned into the pSP64T expression vector, and the presence of the desired mutation was confirmed by sequencing.
Adult female X. laevis frogs (purchased from NASCO) were anesthetized by submersion in a solution of 0.3% (w/v) 3-amino benzoate methanesulfonate for 15 min. Sections of the ovary were surgically removed and placed in Ca^2+-free ND96 buffer supplemented with 0.1% collagenase D (w/v; Roche), 0.5% BSA (w/v) and 9 mM Na2HPO4 at 18°C for 14–16 h while gently shaking. The oocytes were then washed several times with ND96 buffer (5 mM HEPES, pH 7.5, 96 mM NaCl, 2 mM KCl, 1.8 mM CaCl2, 1 mM MgCl2), supplemented with […] gentamycin. Healthy-looking stage V-VI oocytes were manually selected and randomly grouped for injection. A codon-optimized coding sequence of PfCRT was subcloned into the pSP64T expression vector and subsequently linearized using the restriction endonuclease BamHI or SalI (New England Biolabs GmbH). RNA for injection was transcribed in vitro using the mMESSAGE mMACHINE SP6 Transcription kit (Ambion), diluted with nuclease-free water to a final concentration of 0.6 μg/μL and stored at -80°C. RNA was injected using precision-bore glass capillary tubes (3.5-inch glass capillaries; Drummond Scientific Co.), which were pulled on a vertical puller (P-87 Flaming/Brown micropipette puller, Sutter Instrument Co.) and graduated. The micropipettes were connected to a microinjector (Nanoject II Auto-Nanoliter Injector, Drummond Scientific Co.). Injection was conducted under stereomicroscopic control. 50 nL of nuclease-free water alone (control oocytes) or 50 nL of nuclease-free water containing 30 ng of RNA was injected per oocyte. Injected oocytes were kept for 72 h at 18°C in ND96 buffer with two daily buffer changes before being used for further experiments.
Drug transport assays were performed as previously described. Briefly, measurements of radiolabeled drug uptake were made over 1 h, unless otherwise specified. […] Where specified, one or more unlabeled drugs were also present at the indicated concentrations. […] The uptake assays were terminated by removing the oocytes from the reaction medium and washing them three times with 2 mL of ice-cold ND96 buffer. Each oocyte was transferred to a separate scintillation vial and lysed by the addition of 200 μL of a 5% SDS solution. The radioactivity in the sample was measured using a liquid scintillation analyser Tri-Carb 4910 TR (PerkinElmer). Water-injected oocytes were analyzed in parallel as a negative control. The buffer from each condition was measured in duplicate in parallel to each experiment to transform counts per minute into pmol of drug. Drug uptake attributable to PfCRT was determined by subtracting the background uptake from water-injected oocytes from that of PfCRT-expressing oocytes. In all cases, at least three independent experiments were performed on oocytes from different frogs, and for each condition in an experiment, measurements were made from 10 oocytes per treatment.

Row | Compound | PfCRTDd2_H97Y-mediated CQ uptake at 10 µM CQ (10 µM CQ, single replicates) | PfCRTDd2_H97Y-mediated CQ uptake at 50 µM CQ (50 µM CQ, single replicates) | PfCRTDd2_H97Y-mediated CQ uptake at 100 µM CQ (100 µM CQ, single replicates) | PfCRTDd2_H97Y-mediated CQ uptake at 300 µM CQ (300 µM CQ, single replicates) | PfCRTDd2_H97Y-mediated CQ uptake at 500 µM CQ (500 µM CQ, single replicates) | Vmax, maximal velocity of drug transport | Km [µM] | PfCRTDd2_H97Y-mediated PPQ uptake at 10 µM PPQ (10 µM PPQ, single replicates) | PfCRTDd2_H97Y-mediated PPQ uptake at 50 µM PPQ (50 µM PPQ, single replicates) | PfCRTDd2_H97Y-mediated PPQ uptake at 100 µM PPQ (100 µM PPQ, single replicates) | PfCRTDd2_H97Y-mediated PPQ uptake at 300 µM PPQ (300 µM PPQ, single replicates) | PfCRTDd2_H97Y-mediated PPQ uptake at 500 µM PPQ (500 µM PPQ, single replicates)
1 | CCN(CC)CCCC(C)Nc1ccnc2cc(Cl)ccc12 (centres unmarked) [CQ, chloroquine] | 0.94 pmol oocyte-1 h-1 and 1.60 pmol oocyte-1 h-1 and 1.36 pmol oocyte-1 h-1 | 8.24 pmol oocyte-1 h-1 and 3.56 pmol oocyte-1 h-1 and 5.41 pmol oocyte-1 h-1 and 4.92 pmol oocyte-1 h-1 and 5.15 pmol oocyte-1 h-1 | 9.39 pmol oocyte-1 h-1 and 7.90 pmol oocyte-1 h-1 and 6.68 pmol oocyte-1 h-1 | 13.78 pmol oocyte-1 h-1 and 16.15 pmol oocyte-1 h-1 and 14.38 pmol oocyte-1 h-1 | 17.49 pmol oocyte-1 h-1 and 19.24 pmol oocyte-1 h-1 and 15.35 pmol oocyte-1 h-1 | 24 ± 1 pmol oocyte^-1 h^-1 | 184 ± 16 |  |  |  |  | 
2 | Clc1ccc2c(N3CCN(CCCN4CCN(c5ccnc6cc(Cl)ccc56)CC4)CC3)ccnc2c1 [PPQ, piperaquine] |  |  |  |  |  | 131 ± 6 pmol oocyte^-1 h^-1 and 183.94 pmol oocyte^-1 h^-1 | 106 ± 14 | 12.86 pmol oocyte-1 h-1 and 5.01 pmol oocyte-1 h-1 and 5.38 pmol oocyte-1 h-1 | 31.25 pmol oocyte-1 h-1 and 73.07 pmol oocyte-1 h-1 and 57.01 pmol oocyte-1 h-1 and 61.85 pmol oocyte-1 h-1 and 37.57 pmol oocyte-1 h-1 and 17.78 pmol oocyte-1 h-1 | 97.03 pmol oocyte-1 h-1 and 61.02 pmol oocyte-1 h-1 and 41.93 pmol oocyte-1 h-1 and 45.11 pmol oocyte-1 h-1 | 103.79 pmol oocyte-1 h-1 and 76.95 pmol oocyte-1 h-1 and 76.45 pmol oocyte-1 h-1 and 130.46 pmol oocyte-1 h-1 | 133.65 pmol oocyte-1 h-1 and 96.27 pmol oocyte-1 h-1 and 74.35 pmol oocyte-1 h-1 and 131.71 pmol oocyte-1 h-1
